Patent US9090645B2, “Therapeutic compositions and methods of treatment with capsianoside-type compounds” (BMB Patent Holding Corporation, priority 2006, dated 2015)
“And” between values parts separate entries of the source, which are not always exact repeats. Equal values may be shown once.

What was measured:
[1] = tested on: capsaicin-treated hindpaw; experiment: Analgesic Bioassay: rat hindpaw withdrawal latency assay; format: in vivo, Sprague-Dawley rats; details: for Avg. Cmpd. @ 5 min (hindpaw withdrawal latency): 5 min after compound on capsaicin-treated hindpaw; for Avg. Cmpd. @ 5 min (hindpaw withdrawal latency) / Avg. Cmpd. @ 20 min (hindpaw withdrawal latency) / Avg. Cmpd @ 30 min (hindpaw withdrawal latency): 498: 0.27 mg, 660: 0.33 mg; for Avg. Cmpd. @ 5 min (hindpaw withdrawal latency) / Avg. Cmpd. @ 20 min (hindpaw withdrawal latency) / Avg. Cmpd @ 30 min (hindpaw withdrawal latency) / Avg. Cap. @ 20 min (hindpaw withdrawal latency) / Avg. Cap. @ 25 min (hindpaw withdrawal latency) / Avg. Cap. @ 30 min (hindpaw withdrawal latency) / Avg. All Capsaicin (hindpaw withdrawal latency) / Avg. All Baselines (hindpaw withdrawal latency): n=5; for Avg. Cmpd. @ 20 min (hindpaw withdrawal latency): 20 min after compound on capsaicin-treated hindpaw; for Avg. Cmpd @ 30 min (hindpaw withdrawal latency): 30 min after compound on capsaicin-treated hindpaw; for Avg. Cap. @ 20 min (hindpaw withdrawal latency) / Avg. Cap. @ 25 min (hindpaw withdrawal latency) / Avg. Cap. @ 30 min (hindpaw withdrawal latency) / Avg. All Capsaicin (hindpaw withdrawal latency) / Avg. All Baselines (hindpaw withdrawal latency): Table 7; for Avg. Cap. @ 20 min (hindpaw withdrawal latency): 20 min post-capsaicin; for Avg. Cap. @ 20 min (hindpaw withdrawal latency) / Avg. Cap. @ 25 min (hindpaw withdrawal latency) / Avg. Cap. @ 30 min (hindpaw withdrawal latency) / Avg. All Capsaicin (hindpaw withdrawal latency): before compound; for Avg. Cap. @ 25 min (hindpaw withdrawal latency): 25 min post-capsaicin; for Avg. Cap. @ 30 min (hindpaw withdrawal latency): 30 min post-capsaicin; for Avg. All Capsaicin (hindpaw withdrawal latency): all post-capsaicin times; for Avg. All Baselines (hindpaw withdrawal latency): before any treatment
Description: A rat hindpaw assay was used to determine the therapeutic effectiveness of various extracts/compounds as analgesics in the present invention.
Sprague-Dawley rats (225-250 g, male) were anesthetized with urethane and placed on their sides on a disposable Chux pad. Both hindpaws for each rat were blackened with India ink which was allowed to dry for 10 minutes. An ELH projector lamp calibrated to a standard mW/cm^2 was used as a pain stimulus and was condensed into an area of 5×15 mm on each hindpaw and placed perpendicular to, and 72 mm from, each hindpaw.
Multiple baseline hindpaw withdrawal latency times were recorded (in seconds) for each medial and each lateral surface of each hindpaw. Subsequently, 100 μl of 1 μmolar capsaicin was applied with a pipette to cover one hindpaw of each animal and allowed to dry for 10 minutes, rendering the capsaicin-treated hindpaw hypersensitive to pain stimulus relative to the non-capsaicin treated hindpaw (and thereby decreasing the withdrawal latency period for the capsaicin-treated hindpaw relative to the non-treated hindpaw).
Both hindpaws were then re-blackened with India ink which was allowed to dry for 10 minutes, and hindpaw withdrawal latencies were recorded for both the capsaicin-treated and untreated hindpaws on both the medial and lateral aspects of both hindpaws at 20, 25 and 30 minutes. […] By contrast, only minor drops in the withdrawal latency periods of the untreated hindpaws was seen, and the effect that was observed is believed to be due to the central mechanism effect of capsaicin-treatment on the other hindpaw.
To determine the analgesic properties of each fraction, 100 μl of each fraction were applied to the capsaicin-treated hindpaw by pipette and permitted to dry (the untreated hindpaw was not treated with the fraction). Hindpaw withdrawal latencies were then recorded at 5, 20 and 30 minutes for both the capsaicin/fraction-treated hindpaw and the untreated hindpaw. An increase in the hindpaw withdrawal time was indicative of an analgesic effect by the applied fraction.

[2] = tested on: carrageenan-induced inflammation in air pouch; experiment: Inflammation Bioassay: mouse air pouch assay (carrageenan), white blood cells in exudates; format: in vivo, mice
Description: A mouse air pouch assay was used to determine the therapeutic effectiveness of various extracts/compounds as anti-inflammatory agents in the present invention.
To induce air pouches, 10-15 week old mice were injected subcutaneously on the back with 3 ml of air.
On day 2, the pouches were reinflated with 1.5 m. of air.
On day 6, inflammation was induced by injecting 1 ml of a suspension of carrageenan (2% weight/volume in calcium-free and magnesium-free phosphate buffered saline (PBS) solution) into the air pouch.
100 μL of solution including test compounds were injected with the carrageenan (additional 100 μL of PBS were injected into the controls).
After 4 hours, the mice were sacrificed by including CO2 narcosis, the pouches were flushed with 2 ml of PBS, and exudates were harvested.
Exudates were diluted 1:1 with 0.015% methylene blue in PBS.
White blood cells were counted in a standard hemocytometer chamber (American Optical, Buffalo, N.Y.).

[3] = individual mice, 100 μL test solution injected with carrageenan, 4 hours

| Compound | Avg. Cmpd. @ 5 min (hindpaw withdrawal latency) [1] [s] | Avg. Cmpd. @ 20 min (hindpaw withdrawal latency) [1] [s] | Avg. Cmpd @ 30 min (hindpaw withdrawal latency) [1] [s] | analgesic activity (in words) ([1]; Analgesic Bioassay (Example 1)) | Avg. Cap. @ 20 min (hindpaw withdrawal latency) [1] [s] | Avg. Cap. @ 25 min (hindpaw withdrawal latency) [1] [s] | Avg. Cap. @ 30 min (hindpaw withdrawal latency) [1] [s] | Avg. All Capsaicin (hindpaw withdrawal latency) [1] [s] | Avg. All Baselines (hindpaw withdrawal latency) [1] [s] | Average Cells (10^6/ml) (white blood cells in exudate) ([2]; average of five mice, control mice (PBS) 2.67) | Cells (10^6/ml) (white blood cells in exudate) [2, 3] | Cells/ml (white blood cells in exudate) [2, 3] | anti-inflammatory effects compared with methotrexate and dexamethasone ([2]; mouse air pouch) |
| --- | --- | --- | --- | --- | --- | --- | --- | --- | --- | --- | --- | --- | --- |
| C=C[C@](C)(CC/C=C(\C)CC/C=C(\C)CC(O)/C=C(\C)C(=O)O)O[C@@H]1OC(CO)[C@@H](O)C(O)C1O (relative stereo) [Compound 498, 14-(beta-D-glucopyranosyloxy)-4-hydroxy-2,6,10,14-tetramethyl-2,6,10,15-hexadecatetraenoic acid [4R-(2E,4R*,6E,10E,14S*)]] | 13.6 | 9.4 | 8.1 | strong analgesic effect | 7.4 | 7.956 | 5.4 | 6.9 | 10.77 |  |  |  |  |
| C=C[C@](C)(CC/C=C(\C)CC/C=C(\C)CC(O)/C=C(\C)C(=O)O)O[C@@H]1OC(CO)[C@@H](O)C(O)C1O[C@@H]1OC(CO)[C@@H](O)C(O)C1O (stereo partly drawn) [Compound 660, capsianoside I] | 10.5 | 9.6 | 6.5 |  | 9.5 | 6.4 | 5.9 | 7.3 | 9.5 | 1.54 10^6/ml | 1.30 10^6/ml and 2.49 10^6/ml (2×) and 0.32 10^6/ml and 1.09 10^6/ml | 1.30E+06 Cells/ml and 2.49E+06 Cells/ml (2×) and 3.23E+05 Cells/ml and 1.09E+06 Cells/ml | comparable to 0.5-1.0 mg/kg/week of chronic methotrexate, or 1.5 mg/kg acute dose of dexamethasone |
